Key:
Test in all cases: relative viability (nuclei count vs DMSO), 5 days (fraction); higher = more cells survive
Ruxolitinib + Pemetrexed = compound: N#CC[C@H](C1CCCC1)n1cc(-c2ncnc3[nH]ccc23)cn1 [Ruxolitinib] + Nc1nc2[nH]cc(CCc3ccc(C(=O)N[C@@H](CCC(=O)O)C(=O)O)cc3)c2c(=O)[nH]1 [Pemetrexed] (partner 0.2 µM)
Summary of the method: (§1)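 Relative viability is defined as nuclei in treated wells over nuclei in vehicle wells. Duplicate plates were run and medians reported. Lung cancer cell lines in 1536-well plates were dosed by pin tool one day after seeding, with one drug or with a fixed anchor-drug dose plus five library-drug doses (not always all listed) in √10 steps, and nuclei were counted after 5 days.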

Vismodegib + Bortezomib = compound: CS(=O)(=O)c1ccc(C(=O)Nc2ccc(Cl)c(-c3ccccn3)c2)c(Cl)c1 [Vismodegib] + CC(C)C[C@H](NC(=O)[C@H](Cc1ccccc1)NC(=O)c1cnccn1)B(O)O [Bortezomib] (partner 0.002 µM)
Summary of the method: as §1

Vismodegib + Tozasertib = compound: CS(=O)(=O)c1ccc(C(=O)Nc2ccc(Cl)c(-c3ccccn3)c2)c(Cl)c1 [Vismodegib] + Cc1cc(Nc2cc(N3CCN(C)CC3)nc(Sc3ccc(NC(=O)C4CC4)cc3)n2)n[nH]1 [Tozasertib] (partner 0.1 µM)
Summary of the method: as §1

Ruxolitinib + Navitoclax = compound: N#CC[C@H](C1CCCC1)n1cc(-c2ncnc3[nH]ccc23)cn1 [Ruxolitinib] + CC1(C)CCC(c2ccc(Cl)cc2)=C(CN2CCN(c3ccc(C(=O)NS(=O)(=O)c4ccc(N[C@H](CCN5CCOCC5)CSc5ccccc5)c(S(=O)(=O)C(F)(F)F)c4)cc3)CC2)C1 [Navitoclax] (partner 0.5 µM)
Summary of the method: as §1

Cell Line | relative viability (Ruxolitinib + Pemetrexed; first compound 0.08 µM) | relative viability (Ruxolitinib + Pemetrexed; first compound 0.253 µM) | relative viability (Ruxolitinib + Pemetrexed; first compound 0.8 µM) | relative viability (Ruxolitinib + Pemetrexed; first compound 2.53 µM) | relative viability (Ruxolitinib + Pemetrexed; first compound 8 µM) | relative viability (Vismodegib + Bortezomib; first compound 0.08 µM) | relative viability (Vismodegib + Bortezomib; first compound 0.8 µM) | relative viability (Vismodegib + Bortezomib; first compound 2.53 µM) | relative viability (Vismodegib + Bortezomib; first compound 8 µM) | relative viability (Vismodegib + Tozasertib; first compound 0.08 µM) | relative viability (Vismodegib + Tozasertib; first compound 0.253 µM) | relative viability (Vismodegib + Tozasertib; first compound 0.8 µM) | relative viability (Vismodegib + Tozasertib; first compound 2.53 µM) | relative viability (Vismodegib + Tozasertib; first compound 8 µM) | relative viability (Ruxolitinib + Navitoclax; first compound 0.08 µM) | relative viability (Ruxolitinib + Navitoclax; first compound 0.253 µM) | relative viability (Ruxolitinib + Navitoclax; first compound 0.8 µM) | relative viability (Ruxolitinib + Navitoclax; first compound 2.53 µM) | relative viability (Ruxolitinib + Navitoclax; first compound 8 µM) | relative viability (Vismodegib + Bortezomib; first compound 0.253 µM)
SK-LU-1 | 1.03 | 1.02 | 1.01 | 0.919 | 0.792 | 1.17 | 0.979 | 1.1 | 1.16 | 0.269 | 0.348 | 0.295 | 0.347 | 0.361 | 0.79 | 0.634 | 0.0636 | 0.539 | 0.656 | –
HCC-78 | 0.919 | 0.952 | 0.857 | 0.892 | 0.955 | – | 0.488 | 0.549 | 0.4 | 0.352 | 0.454 | 0.502 | 0.304 | 0.41 | 0.663 | 0.528 | 0.692 | 0.604 | 0.702 | 0.498
ChaGo-K-1 | 0.255 | 0.263 | 0.26 | 0.256 | 0.246 | 0.971 | 0.845 | 0.744 | 1.04 | 0.239 | 0.193 | 0.214 | 0.236 | 0.212 | – | 0.861 | 0.796 | 0.986 | 0.734 | 0.957
LCLC-97TM1 | 0.21 | 0.21 | 0.184 | 0.175 | 0.147 | 0.741 | 0.804 | 0.694 | 0.671 | 0.22 | 0.284 | 0.218 | 0.239 | 0.273 | 0.459 | 0.384 | 0.537 | 0.492 | 0.354 | 0.652
SW 1573 | 0.878 | 0.855 | 0.957 | 0.768 | 0.867 | 0.958 | 1.16 | – | 0.946 | 0.185 | 0.206 | 0.16 | 0.13 | 0.19 | 1.06 | 0.925 | 1.02 | 0.918 | 1.04 | 0.995
NCI-H1975 | 0.283 | 0.334 | 0.329 | 0.318 | 0.266 | 0.381 | 0.374 | 0.373 | 0.398 | 0.892 | 0.744 | 0.733 | 0.643 | 0.261 | 1.13 | 1.04 | 1.15 | 0.698 | 0.591 | 0.396
EPLC-272H | 0.357 | 0.372 | 0.377 | 0.313 | 0.218 | 0.988 | 0.864 | 1.14 | 0.723 | 0.254 | 0.273 | 0.34 | 0.348 | 0.148 | 1.48 | 1.14 | 1.31 | 1.05 | 0.954 | 0.783
EMC-BAC-2 | 0.454 | 0.419 | 0.431 | 0.439 | 0.368 | 1.08 | 1.05 | 1.11 | 1.05 | 0.281 | 0.284 | 0.288 | 0.292 | 0.316 | 1.11 | 1.13 | 1.18 | 1.09 | 1.06 | 1.03
